Experimental data published in patent US11103514B2, “Treatment of muscular dystrophy” (Corcept Therapeutics, Inc., priority 2010, dated 2021).

How the values were obtained:
[1] = tested on: bitransgenic EpA960/MCM mice; assay: Tamoxifen-inducible heart-specific DM1 mouse model, mortality; type: in vivo; conditions: intraperitoneal mifepristone in saline, beginning 2 hours after first tamoxifen injection; 1-100 mg per kg body weight; mock-treated mice 80% died within 3 weeks
Method: In this model, EpA960 RNA is induced in the bitransgenic EpA960/MCM mice (F1 progeny) by 5 consecutive daily intraperitoneal injections of tamoxifen (20 mg/kg/d) leading to high mortality, conduction abnormalities, and systolic and diastolic dysfunction. […] Control or mock-treated mice are injected with saline solution alone. Each of the control and test groups typically includes 10-20 mice.
Typically, eighty percent of the mock-treated mice died within 3 weeks of RNA induction due to arrhythmias and/or contractile dysfunction. […] Description of experimental procedures can be found in, e.g., Wang et al., J Clin Invest. 2009; 119(12):3797-806.

[2] = percent of the daily dose; in one study (Kawai); cited from earlier work

Structure (SMILES): CC#C[C@]1(O)CC[C@H]2[C@@H]3CCC4=CC(=O)CCC4=C3[C@@H](c3ccc(N(C)C)cc3)C[C@@]21C [Mifepristone, 17-β-hydroxy-11-β-(4-dimethyl-aminophenyl)-17-α-(1-propynyl)-estra-4,9-dien-3-one]
- reduction of the mortality of bitransgenic mice [1]: at least 10%
- daily dose excreted in the urine [2]: less than 0.5%
